Results from patent US9127040B2, “Regulation of sodium channels by PLUNC proteins” (The University of North Carolina at Chapel Hill, priority 2011, dated 2015).
Ends that are not written are not given here.

Molecular target: T1, βENaC (Homo sapiens, UniProt P51168)
T1 construct: expressed in transfected cells; host or cells: HEK293T cells (lysate)
T1 sequence (P51168 1-640): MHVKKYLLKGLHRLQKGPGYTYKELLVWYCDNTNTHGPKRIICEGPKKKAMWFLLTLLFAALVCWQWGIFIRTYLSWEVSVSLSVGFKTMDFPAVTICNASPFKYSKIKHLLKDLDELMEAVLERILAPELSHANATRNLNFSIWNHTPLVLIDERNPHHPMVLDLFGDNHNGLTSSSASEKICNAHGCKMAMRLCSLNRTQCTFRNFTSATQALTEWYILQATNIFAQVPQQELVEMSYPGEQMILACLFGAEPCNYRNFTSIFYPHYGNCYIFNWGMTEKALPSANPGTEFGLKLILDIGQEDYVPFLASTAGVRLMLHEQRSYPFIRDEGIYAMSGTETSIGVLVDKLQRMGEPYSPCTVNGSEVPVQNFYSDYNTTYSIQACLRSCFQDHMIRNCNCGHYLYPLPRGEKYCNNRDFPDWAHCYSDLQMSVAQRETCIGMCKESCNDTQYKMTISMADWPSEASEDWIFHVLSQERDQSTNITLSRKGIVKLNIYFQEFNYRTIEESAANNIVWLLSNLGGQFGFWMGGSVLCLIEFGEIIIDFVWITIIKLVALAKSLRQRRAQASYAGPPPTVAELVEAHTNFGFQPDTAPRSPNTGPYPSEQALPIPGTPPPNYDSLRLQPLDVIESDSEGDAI
Assay: Biotinylated peptide pull-down of ENaC subunits from HEK293T cells
Format: binding
Description: HEK293T cells were transfected with double-tagged human ENaC subunits with HA and V5 epitopes at the N- and C-termini, respectively, in combination with wild-type untagged subunit cDNA. When all three ENaC subunits were expressed, 0.5 μg of each subunit were transfected per well. When expressed individually, 0.75 μg of the subunit were transfected per well. The transfected cells were lysed 24 h later using NP-40 buffer with 1× complete EDTA-free protease inhibitor (Roche, Basel, Switzerland). The lysate was centrifuged at 16,300×g for 15 minutes at 4° C. and the supernatant collected. Protein concentration was determined using the BCA assay and 500 μg of protein plus 0.25 mg peptide and 100 μL of neutravidin were added to a spin column and rotated end-over-end at 4° C. for 24 h (all ThermoFisher Scientific, Rockford, Ill., USA). Flow-through was collected by centrifugation at 1000×g for 30 s. The beads were then washed 5× with NP-40 buffer. Bound protein was eluted by boiling at 95° C. for 10 minutes in 75 μL of 2×LDS NuPAGE sample buffer with 1× sample reducing agent followed by centrifugation at 16,300×g for 2 minutes. Samples were resolved on 4-12% Bis-Tris gels in MES and transferred to a nitrocellulose membrane using iBlot, setting P3 for 8 min (Invitrogen, Carlsbad, Calif., USA). The membrane was probed using 1:1000 anti-V5 antibody (Invitrogen, Carlsbad, Calif., USA) overnight at 4° C. in 3% fish gelatin in TBS-T. The blot was then incubated for 1 h at room temperature with an ECL sheep anti-mouse IgG secondary antibody and detected by ECL reagent (ThermoFisher Scientific, Waltham, Mass., USA) or by incubation with a goat anti-mouse IRDye secondary antibody and analyzed by an Odyssey infrared imaging system (LI-COR Biosciences, Lincoln, Nebr., USA).
Peptide pull-down assays were performed as described above. Samples were eluted by the addition of 100 μL of 0.1 M sodium citrate, pH 5.5, 0.1% SDS to the beads and incubating at 100° C. for 2 minutes, followed by centrifugation at 16,300×g for 2 minutes. […]

Sequence: GGLPVPLDQTLPLNVNPA [S18]
- glycosylation dependence of β-ENaC interaction (EndoH treated elution, tunicamycin treated cells): glycosylation dependent
- binding to βENaC (pull-down) (subunits individually expressed, biotinylated peptide): binds exclusively to βENaC
